The values below come from patent US5334606A, “Oxazolidindione substituted indole derivatives” (Merck Sharpe & Dohme Ltd., priority 1991, dated 1994).

A word on the IC50: it is the concentration at which inhibition is half-maximal.

For experiment [1] the following is noted: literature, J. Med. Chem., 33(5), 1418-23 (1990); cited from earlier work.
Experiment [2] has as its target T1, human neurokinin-1- receptor (NK1R) (Homo sapiens, UniProt P25103).
T1 construct: expressed in transfected cells
Description: 125I-substance P binding assay, human NK1R expressed in COS or CHO cells (Substance P antagonism). The note with it: displacement of 125I-substance P, 4° C. or room temperature, 1 hour. On the procedure:
SUBSTANCE P ANTAGONISM ASSAY
A. Receptor Expression in Monkey Kidney Cell Line (COS)
To express the cloned human neurokinin-1- receptor (NK1R) transiently in COS, the cDNA for the human NK1R was cloned into the expression vector pCDM9 which was derived from pCDM8 (INVITROGEN) by inserting the ampicillin resistance gene (nucleotide 1973 to 2964 from BLUESCRIPT SK+ (trademark, STRATAGENE, La Jolla, Calif., USA)) into the Sac II site. Transfection of 20 μg of the plasmid DNA into 10 million COS cells was achieved by electropotation in 800 μl of transfection buffer (135 mM NaCl, 1.2 mM CaCl2, 1.2 mM MgCl2, 2.4 mM K2 HPO4, 0.6 mM KH2 PO4, 10 mM glucose, 10 mM N-2-hydroxyethyl-piperazine-N'-2-ethane sulphonic acid (HEPES) pH 7.4) at 260 V and 950 μF using the IBI GENEZAPPER (trademark IBI, New Haven, Conn., USA). The cells were incubated in 10% fetal calf serum, 2 mM glutamine, 100U/ml penicillin-streptomycin, and 90% DMEM media (GIBCO, Grand Island, N.Y., USA) in 5% CO2 at 37° C. for three days before the binding assay.
B. Stable Expression in Chinese Hamster Ovarian Cell Line (CHO)
To establish a stable cell line expressing cloned human NK1R, the cDNA was subcloned into the vector pRcCMV (INVITROGEN). Transfection of 20 μg of the plasmid DNA into CHO cells was achieved by electroporation in 800 μl of transfection buffer supplemented with 0.625 mg/ml Herring sperm DNA at 300 V and 950 μF using the IBI GENEZAPPER (IBI). The transfected cells were incubated in CHO media [10% fetal calf serum, 100 U/ml penicillin-streptomycin, 2 mM glutamine, 1/500 hypoxanthinethymidine (ATCC), 90% IMDM media (JRH BIOSCIENCES, Lenexa, Kans., USA), 0.7 mg/ml G418 (GIBCO)] in 5% CO2 at 37° C. until colonies were visible. Each colony was separated and propagated. The cell clone with the highest number of human NK1R was selected.
C. Assay Protocol using COS or CHO
The binding assay of human NK1R expressed in either COS or CHO cells is based on the use of ^125 I-substance P (^125 I-SP, from DU PONT, Boston, Mass.) as a radioactively labeled ligand which competes with unlabeled substance P or any other ligand for binding to the human NK1R. Monolayer cell cultures of COS or CHO were dissociated by the non-enzymatic solution (SPECIALTY MEDIA, Lavellette, N.J.) and resuspended in appropriate volume of the binding buffer (50 mM Tris pH 7.5, 5 mM MnCl2, 150 mM NaCl, 0.04 mg/ml bacitracin, 0.004 mg/ml leupeptin, 0.2 mg/ml BSA, 0.01 mM phosphoramidon) such that 200 μl of the cell suspension would give rise to about 10,000 cpm of specific ^125 I-SP binding (approximately 50,000 to 200,000 cells). In the binding assay, 200 μl of cells were added to a tube containing 20 μl of 1.5 to 2.5 nM of ^125 I-SP and 20 μl of unlabeled substance P or any other test compound. The tubes were incubated at 4° C. or at room temperature for 1 hour with gentle shaking. The bound radioactivity was separated from unbound radioactivity by GF/C filter (BRANDEL, Gaithersburg, MD) which was pre-wetted with 0.1% polyethylenimine. The filter was washed with 3 ml of wash buffer (50 mM Tris pH 7.5, 5 mM MnCl2, 150 mM NaCl) three times and its radioactivity was determined by gamma counter.
A general note: Loss of bound radioactivity is the signal in a displacement assay; it reports binding, not function.

For experiment [3] the following is noted: literature, J. Med. Chem., 24(4), 465-8 (1981); cited from earlier work.

T1 sequence (P25103 whole entry): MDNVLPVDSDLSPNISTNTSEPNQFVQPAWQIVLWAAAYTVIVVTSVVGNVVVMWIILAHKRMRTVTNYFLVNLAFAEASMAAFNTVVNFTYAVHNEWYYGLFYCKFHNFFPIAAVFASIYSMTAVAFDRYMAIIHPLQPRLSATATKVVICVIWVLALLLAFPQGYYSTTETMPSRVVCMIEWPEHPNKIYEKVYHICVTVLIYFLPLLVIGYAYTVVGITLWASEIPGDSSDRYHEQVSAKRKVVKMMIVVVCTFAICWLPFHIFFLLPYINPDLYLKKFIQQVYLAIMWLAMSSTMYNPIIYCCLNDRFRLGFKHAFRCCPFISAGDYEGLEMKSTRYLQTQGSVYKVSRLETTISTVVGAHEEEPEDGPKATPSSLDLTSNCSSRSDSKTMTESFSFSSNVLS

As for `O=C1NC(=O)C(Cc2ccc3ccccc3c2)S1` (stereo not drawn), the antihyperglycaemic activity result in experiment [1] is on record as “antihyperglycaemic activity”.
As to `Cn1cc(CC2OC(=O)N(Cc3cc(C(F)(F)F)cc(C(F)(F)F)c3)C2=O)c2ccccc21` (stereo not drawn) [Example 4c], in experiment [2], the IC50 was found to be 300 nM.
Same read-out and setting: under `CC1(Cc2ccc3ccccc3c2)OC(=O)N(Cc2cc(C(F)(F)F)cc(C(F)(F)F)c2)C1=O` (stereo not drawn) [Example 9, 5-Methyl-5-(2-naphthylmethyl)-3-(3,5-bistrifluoromethylbenzyl)oxazolidin-2,4-dione] stands above 1000 nM; under `O=C1OC(Cc2c[nH]c3ccccc23)C(=O)N1Cc1cc(C(F)(F)F)cc(C(F)(F)F)c1` (stereo not drawn) [Example 1], 21 nM; under `CC1(Cc2c[nH]c3ccccc23)OC(=O)N(Cc2cc(C(F)(F)F)cc(C(F)(F)F)c2)C1=O` (stereo not drawn) [Example 4b], 140 nM.
The same measure, in the same setting: the value for `O=C1O[C@@H](Cc2c[nH]c3ccccc23)C(=O)N1Cc1cc(C(F)(F)F)cc(C(F)(F)F)c1` [Example 8] was 17 nM; that for `O=C1C(Cc2c[nH]c3ccccc23)N(Cc2ccccc2)C(=O)N1Cc1cc(C(F)(F)F)cc(C(F)(F)F)c1` (stereo not drawn) [Example 11] was 630 nM.
On the same count and under the same terms, the value for `O=C1CC(Cc2c[nH]c3ccccc23)C(=O)N1Cc1cc(C(F)(F)F)cc(C(F)(F)F)c1` (stereo not drawn) [Example 3] was 250 nM; that for `Cn1cc(CC2(C)OC(=O)N(Cc3cc(C(F)(F)F)cc(C(F)(F)F)c3)C2=O)c2ccccc21` (stereo not drawn) [Example 4a, 3-(3,5-Bistrifluoromethylbenzyl)-5-methyl-5-(1-methylindol-3-ylmethylene)oxazolidin-2,4-dione] was 14 nM; that for `O=C1NC(Cc2c[nH]c3ccccc23)C(=O)N1Cc1cc(C(F)(F)F)cc(C(F)(F)F)c1` (stereo not drawn) [Example 2] was 400 nM.
For the compound “1-Phenylcarboxamide-3-(3,5-bistrifluoromethylbenzyl)-5-(indol-3-ylmethylene)imidazolidine-2,4-dione [Example 13]”, the IC50 in experiment [2] worked out at 410 nM.
On the same count and under the same terms, under `C=CCC1(Cc2c[nH]c3ccccc23)OC(=O)N(Cc2cc(C(F)(F)F)cc(C(F)(F)F)c2)C1=O` (stereo not drawn) [Example 6] stands 50 nM; under `CN1C(=O)N(Cc2cc(C(F)(F)F)cc(C(F)(F)F)c2)C(=O)C1Cc1c[nH]c2ccccc12` (stereo not drawn) [Example 12], 160 nM.
The same measure, in the same setting: the value for `COc1ccc2[nH]cc(CC3OC(=O)N(Cc4cc(C(F)(F)F)cc(C(F)(F)F)c4)C3=O)c2c1` (stereo not drawn) [Example 5] was 300 nM.
The compound `CC1(Cc2ccc(Cl)c(Cl)c2)OC(=O)N(Cc2cc(C(F)(F)F)cc(C(F)(F)F)c2)C1=O` (stereo not drawn) [Example 10, 5-Methyl-5(3,4-dichlorobenzyl)-3-(3,5-bistrifluoromethylbenzyl)oxazolidin-2,4-dione] showed an IC50 in experiment [2] of 100 nM. This IC50 lies about 3-fold lower than the previous one.
Turning to `CN1C(=O)NC(Cc2cccc(Br)c2)C1=O` (stereo not drawn), the anticonvulsant activity entry in experiment [3] is “weak anticonvulsant activity”.
With `O=C1OC(Cc2c[nH]c3ccccc23)C(=O)N1Cc1cc(Cl)cc(Cl)c1` (stereo not drawn) [Example 7], the IC50 in experiment [2] amounted to 200 nM.
In experiment [2], `CNC(=O)N1C(=O)N(Cc2cc(C(F)(F)F)cc(C(F)(F)F)c2)C(=O)C1Cc1c[nH]c2ccccc12` (stereo not drawn) [Example 14] showed a 50% inhibitory concentration (IC50) of 85 nM.
